In patent US7622447B2, “Use of glutathione synthesis stimulating compounds in reducing insulin resistance” (DiaMedica Inc., priority 2002, dated 2009):
“And” between values parts separate entries of the source, which are not always exact repeats. Identical values can stand only once. “Also recorded” adds a separate entry of the source.

Key:
[1] = test system: Wistar rats; test: Rapid Insulin Sensitivity Test (RIST), euglycemic clamp, in saline and BSO (GSH-depleted) rats; assay type: in vivo, rat
Text: The rapid insulin sensitivity test (RIST) was employed (Lautt et al., Can. J. Physiol. Pharmacol. 76:1080 (1998)) is employed to avoid the complexity of the reaction to hypoglycemia. The RIST involves use of a euglycemic clamp following the administration of insulin and quantitation of the response as the amount of glucose required to be infused over the test period in order to hold arterial blood glucose levels constant. […] It is highly reproducible with up to five consecutive responses being obtainable in cats and four in rats with blood glucose levels returning to control levels between each test. Insulin, glucagon, and catecholamine levels remain unchanged between tests.
(§1) Summary: GSH depletion was induced in 5 week old Wistar rats using buthionine sulfoximine (BS), 2 mmol/kg bw, i.p. for 20 days. Control rats were injected with an equal volume of saline. Insulin sensitivity was measured using a euglycemic clamp, the Rapid Insulin Sensitivity Test—RIST. In both the saline group (SG) and BSO group (BG) a control RIST followed by a RIST post-L-NAME (1 mg/kg i.p.v.), a NOS competitive antagonist, and a RIST post-SIN-1 (5 mg/kg i.p.v.), a NO donor, were performed. The liver was removed for further determined of hepatic GSH content using the GSH peroxidase-reductase assay. […] The control RIST, 248.0±15.8 mg glucose/kg for SG, was impaired in the BG (158.4±12.2 mg glucose/kg; p<0.01). After L-NAME the SG RIST was 129.0±1.9 mg glucose/kg and the BG RIST was 109.0±9.1 mg glucose/kg. […] HISS action, quantified by subtracting the post L-NAME RIST from the control RIST, was 114.0±15.8 mg glucose/kg for SG and only 49.3±8.6 mg glucose/kg for BG (p<0.01). HISS dependent insulin resistance appears to be related to impaired levels of GSH in the liver, leading to a compromised HISS secretion/release.
Male Wistar rats (8 weeks) were anaesthetized with sodium pentobaribtial (65 mg/kg). Body temperature was maintained at 37±0.5 °C. An arterial-venous loop (carotid artery and internal jugular vein) was employed. A catheter was inserted into the portal vein.
RIST (Rapid Insulin Sensitivity Test): Blood samples (25 μl) for arterial glucose analysis were taken from the arterial-venous loop. A stable glucose baseline was established. Insulin (50 mU/kg i.v.) was infused over 5 minutes. Arterial blood samples were taken every 2 minutes. Glucose was adjusted to maintain euglycemia. RIST index=mg glucose/kg infused during RIST.

[2] = test system: hepatic GSH; test: Hepatic GSH content by GSH peroxidase-reductase assay; assay type: in vivo, rat
Description: as §1, with “Test-RIST.” for “Test—RIST.”, “post-[…]” for “post-L-NAME (1 mg/kg i.p.v.), a”, “secretion/release. […] CONTENT: […] Hepatic GSH content was decreased in 48.3±6.9% in BSO group. ***=p<0.001.” for “secretion/release.”

[3] = test system: fasting-induced HDIR; test: Fasting-induced HISS-dependent insulin resistance (HDIR) model, overnight fast; assay type: in vivo
Text: A model of low hepatic GSH and NO production is produced by overnight fasting.

[4] = test system: hepatic glutathione; conditions: cited from earlier work
[5] = test system: HISS; test: HISS action after NOS blockade; assay type: in vivo
[6] = test system: cats; conditions: cited from earlier work

Compound: CCCCS(=N)(=O)CCC(N)C(=O)O (centres unmarked) [BSO, buthionine sulfoximine]
- control RIST index in BSO group ([1]; BSO 2 mmol/kg bw i.p. for 20 days, before L-NAME): 158.4±12.2 mg glucose/kg
- decrease of HISS action ([1]; BSO group compared to control group): 64.4%
- HISS-independent component of insulin action ([1]; BSO group versus control group): not different
- HISS action (HISS-dependent component of insulin action) ([1]; BSO group, control RIST minus post L-NAME RIST): 49.3±8.6 mg glucose/kg and 49.3±8.56 mg glucose/kg
- reduction in hepatic GSH content ([2]; BSO group compared to saline/control group): 48.3±6.9%
- hepatic GSH content ([2]; BSO group, BSO 2 mmol/kg bw i.p. for 20 days): 2.96±0.4 μmol/g fresh liver

Compound: N[C@@H](CCC(=O)N[C@@H](CS)C(=O)NCC(=O)O)C(=O)O [GSH, glutathione]
- reversal of HDIR / reduction in insulin resistance by GSH alone ([3]; GSH by itself): small but significant reduction in insulin resistance; also recorded: minor reversal of HDIR
- insulin sensitivity / reversal of HDIR by GSH together with NO donor ([3]; GSH plus NO / NO donor): Improved insulin sensitivity; also recorded: only becomes therapeutically significant after the addition of the NO donor

Compound: COC(=O)[C@@H](N)CCCNC(=N)N[N+](=O)[O-] [L-NAME]
- RIST index post-L-NAME in BSO group ([1]; BSO-treated rats, L-NAME 1 mg/kg intraportal): 109.0±9.1 mg glucose/kg and 109.8±9.1 mg glucose/kg
- inhibition of RIST index by L-NAME ([1]; control group, L-NAME 1 mg/kg i.p.v.): 52.3±5.8%

Compound: C[S+](CC[C@H](N)C(=O)O)C[C@H]1O[C@@H](n2cnc3c(N)ncnc32)[C@H](O)[C@@H]1O (some centres unmarked) [SAMe, S-adenosylmethionine]
- time of peak glutathione levels ([4]; after oral administration of SAMe): 3 to 6 h
- intrahepatic glutathione after SAMe administration ([4]; in vivo): restored to near-normal levels

Compound: [NH-]c1c[n+](N2CCOCC2)no1 [SIN-1, 3-morpholinosyndnonimine]
- restoration of RIST index / insulin action by SIN-1 in BSO group ([1]; BSO-treated rats, SIN-1 5 mg/kg i.p.v. after L-NAME, 5 mg/kg): only restored insulin action in the SG; also recorded: did not reverse the RIST index to control values
- RIST index post-SIN-1 ([1]; saline/control group, SIN-1 5 mg/kg i.p.v. after L-NAME, 5 mg/kg): 246.0±11.5 mg glucose/kg and 258.1±18.5 mg glucose/kg
- reversal of fasting induced HDIR by SIN-1 alone ([3]; SIN-1 2.5 to 10 mg/kg i.p.v., overnight fast): do not reverse fasting induced HDIR
- HISS action after NOS blockade [5]: reverses HISS inhibition after NOS blockade

Compound: CN1[C@@H]2CC[C@H]1C[C@@H](OC(=O)C(CO)c1ccccc1)C2 (some centres unmarked) [atropine]
- hepatic glucose response ([6]; arterial-venous glucose response to bolus insulin after atropine): not notably altered

Compound: COc1ccccc1CNCCCCCCNCCCCCCCCNCCCCCCNCc1ccccc1OC [methoctramine]
- dose producing full / similar degree of insulin resistance [6]: 10^−6 μmol/kg

Compound: CN1CCN(CC(=O)N2c3ccccc3C(=O)Nc3cccnc32)CC1 [pirenzepine]
- dose producing a similar degree of insulin resistance [6]: 10^−7 mmol/kg

Compound: Nitroprusside
- HISS action after NOS blockade [5]: not able to restore HISS action after NOS blockade
